Experiments:
IRE1α* = molecular target: T1, IRE1α* (Homo sapiens, UniProt O75460); assay: In vitro kinase activity assay (IRE1α kinase inhibition); type: biochemical; conditions: for Ki: read-out: Inhibition of IRE1α*'s kinase activity, Ki; for IC50: IRE1α kinase inhibition, read-out: IC50 IRE1a
T1 construct: human IRE1α (residues 547-977, IRE1α*) was expressed in SF9 insect cells; His6 (N); made in house; host or cells: Sf9 insect cells (Bac-to-Bac baculovirus)
Protocol: A construct containing the cytosolic kinase and RNase domains of human IRE1α (residues 547-977, IRE1α*) was expressed in SF9 insect cells by using the Bac-to-Bac baculovirus expression system (Invitrogen) with a His6 tag at the N-terminus and purified with a nickel-nitriloacetic acid (Qiagen) column. To generate dP-IRE1α*, we removed basal phosphorylation sites by incubating IRE1α* with λ-PPase (New England Biolabs) at a molar ratio of 5:1 (IRE1α*: λ-PPase) in 50 mM HEPES pH 7.5, 100 mM NaCl, 1 mM MnCl2, 2 mM dithiothreitol (DTT) and 0.01% Brij 35 detergent (v/v) overnight at 4° C. Dephosphorylation was verified through western blotting using a universal phospho-protein detection agent (biotin-pIMAGO (Tymora Analytical Operations, Cat. No.: FL800) and imaged using a streptavidin-linked fluorophore.
In Vitro Kinase Activity Assay
Inhibitors (initial concentration of 10 or 60 μM, three-fold serial dilutions) were incubated with IRE1α* in cleavage buffer (20 mM HEPES, 0.05% Triton X-100 (v/v), 50 mM KCl, 1 mM MgCl2, 1 mM DTT, pH 7.5) for 30 min, followed by incubation with 10 μCi [γ^32P] ATP (3,000 Ci mmol^−1, PerkinElmer) at 23° C. for 3 hours. Samples were then spotted onto glass fiber paper (Easytab-C Glass Fiber Filter Paper, Perkin Elmer) and washed in twice with 0.5% phosphoric acid and autoradiographed using a GE Typhoon FLA 9000 Imager. Blots were quantitated using ImageQuant software. The percent inhibition was quantified by setting the background (no kinase well) as 0 and standardizing to IRE1α* without compound treatment (IRE1α*+DMSO). Dose-response curves were fit using “one-site fit log IC50” parameter using GraphPad Prism analysis software.
Compound Characterization (IC50 IRE1α Kinase Inhibition)

XBP1 mRNA splicing = XBP1 mRNA splicing in INS-1 cells conditionally overexpressing IRE1α (Dox); type: cell-based, rat; conditions: 3, 10 μM for 1 hour, then Dox (1 μg/mL) for 4 hours
Protocol: (§1) RNA Isolation, Quantitative Real-Time PCR, and Primers
(§2) INS-1 or isogenic IRE1α-overexpressing INS-1 cells were plated onto Poly-D-Lysine coated tissue culture plate and grown for 48 hrs. Inhibitors or DMSO were added to the media and incubated for 1 hour at 37° C. with 5% CO2 prior to addition of ER stress agents or Dox as indicated. RNA was isolated from whole cells using either QIAGEN RNeasy Mini kits or Trizol (Invitrogen) and reverse transcribed as above to obtain total cDNA. Then, XBP-1 primers were used to amplify an XBP-1 amplicon spanning the 26 nt intron from the cDNA samples in a regular 3-step PCR. Thermal cycles were: 5 min at 95° C., 30 cycles of 30 s at 95° C., 30 s at 60° C., and 1 min at 72° C., followed by 72° C. for 15 min, and hold at 4° C. Primers used for XBP-1 mRNA splicing were as follows: sense primer XBP1.3 S (5′ […]-3′ (SEQ ID NO:2)) and antisense primer XBP1.2AS (5′-[…]-3′ (SEQ ID NO:3)). PCR fragments were then digested by PstI, resolved on 3% agarose gels, stained with EtBr and quantified by densitometry using ImageJ (NIH). For standard mRNA detection, generally […] total RNA was reverse transcribed using the QuantiTect Reverse Transcription Kit (QIAGEN). For qPCR, we used SYBR green (QIAGEN) and StepOnePlus Real-Time PCR System (Applied Biosystems). Thermal cycles were: 5 min at 95° C., 40 cycles of 15 sec at 95° C., 30 sec at 60° C. Gene expression levels were normalized to Beta Actin. Primers used for qPCR of RIDD targets were as follows: Beta Actin Fwd: 5′-[…]-3′ (SEQ ID NO:4), Beta Actin Rev: 5′-[…]-3′ (SEQ ID NO:5), Insulin 1 Fwd: 5′-GTCCTCTGGGAGCCCAAG-3′ (SEQ ID NO:6), Insulin 1 Rev: 5′-ACAGAGCCTCCACCAGG-3′ (SEQ ID NO:7), Insulin 2 Fwd: 5′-ATCCTCTGGGAGCCCCGC-3′ (SEQ ID NO:8), Insulin 2 Rev: 5′-AGAGAGCTTCCACCAAG-3′ (SEQ ID NO:9), Blos1 Fwd: 5′-[…]-3′ (SEQ ID NO:10), and Blos1 Rev: 5′-[…]-3′ (SEQ ID NO:11).
(§3) RNA was extracted using Trizol (Invitrogen), DNaseI treated, and cDNA products encompassing the intron amplified by QuantiTect Reverse Transcription Kit (Qiagen). sense Primer rXBP Forward (5′-[…]-3′ (SEQ ID NO:12)) and antisense primer rXBP Reverse (5′-[…]-3′ (SEQ ID NO:13)) were used. PCR fragments were digested by PstI, resolved on 3% agarose gels, stained with EtBr, and quantified by densitometry.
as §3, with “XBP1 splicing for FIGS. 33A-33F: RNA” for “RNA”, “(Invitrogen),” for “(Invitrogen), DNaseI treated, and”, “(Qiagen). Sense” for “(Qiagen). sense”, “rXBP splicing” for “rXBP”

[1] = test system: RIDD (IRE1α-dependent mRNA decay); assay: Real-time PCR of RIDD mRNA targets in INS-1 cells overexpressing IRE1α (Dox); type: cell-based, rat; conditions: 3, 10 μM for 1 hour, then Dox (5 ng/mL) for 24 hours
Protocol: as §1, §2
Real-Time PCR (Q-PCR) used SYBR green and Step OnePlus Real-Time PCR System (Applied Biosystems). Thermal cycles were: 5 min at 95° C., 40 cycles of 15 s at 95° C., 30 s at 60° C. Gene expression levels were normalized to GAPDH. Q-PCR Sense/antisense primers used: Rat GAPDH, 5′-[…]-3′ (SEQ ID NO:14) and 5′-[…]-3′ (SEQ ID NO:15); Rat Ins1, 5′-GTCCTCTGGGAGCCCAAG-3′ (SEQ ID NO:6) and 5′-ACAGAGCCTCCACCAGG-3′ (SEQ ID NO:7); Rat Pdia4, 5′-CGTCTCGCCCTGATTCGT-3′ (SEQ ID NO:16) and 5′-[…]-3′ (SEQ ID NO:17); Rat Blos1, 5′-[…]-3′ (SEQ ID NO:18) and 5′-TGTCCAGTTCGATGCTCCG-3′ (SEQ ID NO:19).
Real-time PCR for FIGS. 34A-34F: Real-Time PCR (Q-PCR) used SYBR green and Step OnePlus Real-Time PCR System (Applied Biosystems). Thermal cycles were: 5 min at 95° C., 40 cycles of 15 s at 95° C., 30 s at 60° C. Gene expression levels were normalized to GAPDH. Q-PCR Sense/antisense primers used: Rat GAPDH, 5′-[…]-3′ (SEQ ID NO:20) and 5′-[…]-3′ (SEQ ID NO:21); Rat Ins1, 5′-GTCCTCTGGGAGCCCAAG-3′ (SEQ ID NO:6) and 5′-ACAGAGCCTCCACCAGG-3′ (SEQ ID NO:7); Rat Ins2, 5′-ATCCTCTGGGAGCCCCGC-3′ (SEQ ID NO:8) and 5′-AGAGAGCTTCCACCAAG-3′ (SEQ ID NO:9); Rat Pdia4, 5′-[…]-3′(SEQ ID NO:22) and 5′-[…]-3′ (SEQ ID NO:23); Rat Blos1, 5′-[…]-3′ (SEQ ID NO:18) and 5′-TGTCCAGTTCGATGCTCCG-3′ (SEQ ID NO:19).

T1 sequence (O75460 547-977): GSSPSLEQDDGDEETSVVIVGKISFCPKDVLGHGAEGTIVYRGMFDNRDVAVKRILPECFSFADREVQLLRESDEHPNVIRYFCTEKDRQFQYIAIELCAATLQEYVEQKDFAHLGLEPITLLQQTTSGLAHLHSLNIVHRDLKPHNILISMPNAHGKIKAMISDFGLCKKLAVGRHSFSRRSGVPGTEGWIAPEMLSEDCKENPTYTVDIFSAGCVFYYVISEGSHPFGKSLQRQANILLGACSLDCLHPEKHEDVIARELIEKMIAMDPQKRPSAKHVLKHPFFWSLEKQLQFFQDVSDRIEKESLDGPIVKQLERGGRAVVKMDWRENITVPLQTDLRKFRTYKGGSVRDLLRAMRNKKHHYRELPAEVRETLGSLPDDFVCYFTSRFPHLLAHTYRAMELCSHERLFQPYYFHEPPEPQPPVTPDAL

Structure (SMILES) | Ki (IRE1α*) [nM] | IC50 (IRE1α*) [nM] | % spliced XBP1 amplicons (XBP1 mRNA splicing) | RIDD mRNA targets (Ins1, Ins2, Pdia4) [1]
Nc1ccc(Oc2ncccc2-c2ccnc(N[C@H]3CC[C@H](N)CC3)n2)cc1F [compound 1, (1r,4r)-N1-(4-(2-(4-amino-3-fluorophenoxy)pyridin-3-yl)pyrimidin-2-yl) cyclohexane-1,4-diamine] | 480 | – | – | –
Cc1c(F)c(NS(=O)(=O)CC(F)(F)F)c2ccccc2c1Oc1ncccc1-c1ccnc(N[C@H]2CCCNC2)n1 [LBC-0000390, (S)-2,2,2-trifluoro-N-(2-fluoro-3-methyl-4-((3-(2-(piperidin-3-ylamino)pyrimidin-4-yl)pyridin-2-yl)oxy)naphthalen-1-yl) ethane-1-sulfonamide] | – | 9.5 | – | –
Cc1cc(NS(=O)(=O)CC2CC2)c2ccccc2c1Oc1ncccc1-c1ccnc(N[C@@H]2CNC[C@@H](F)C2)n1 [LBC-409, 1-cyclopropyl-N-(4-((3-(2-(((3S,5S)-5-fluoropiperidin-3-yl)amino)pyrimidin-4-yl)pyridin-2-yl)oxy)-3-methylnaphthalen-1-yl)methanesulfonamide] | – | 7.4 | do not suppress XBP mRNA splicing | block RIDD
N[C@H]1CC[C@H](Nc2nccc(-c3cccnc3Oc3ccc(NS(=O)(=O)C4CC4)c4ccccc34)n2)CC1 [compound 5, N-(4-(3-(2-((1r,4r)-4-aminocyclohexylamino)pyrimidin-4-yl)pyridin-2-yloxy)naphthalen-1-yl)cyclopropanesulfonamide] | 140 | – | – | –
N[C@H]1CC[C@H](Nc2nccc(-c3cccnc3Oc3cccc4c(NS(=O)(=O)C5CCC5)cccc34)n2)CC1 [compound 6, N-(5-(3-(2-((1r,4r)-4-aminocyclohexylamino)pyrimidin-4-yl)pyridin-2-yloxy)naphthalen-1-yl) cyclobutanesulfonamide] | 98 | – | – | –
O=S(=O)(CC(F)(F)F)Nc1ccc(Oc2ncccc2-c2ccnc(N[C@@H]3CNC[C@@H](F)C3)n2)c2ccccc12 [LBC-0000398, 2,2,2-trifluoro-N-(4-((3-(2-(((3S,5S)-5-fluoropiperidin-3-yl)amino)pyrimidin-4-yl)pyridin-2-yl)oxy)naphthalen-1-yl) ethane-1-sulfonamide] | – | 7.2 | – | –
Cc1cc(NS(=O)(=O)CCC(F)(F)F)c2ccccc2c1Oc1ncccc1-c1ccnc(N[C@@H]2CNC[C@@H](F)C2)n1 [LBC-410, 3,3,3-trifluoro-N-(4-((3-(2-(((3S,5S)-5-fluoropiperidin-3-yl)amino)pyrimidin-4-yl)pyridin-2-yl)oxy)-3-methylnaphthalen-1-yl)propane-1-sulfonamide] | – | 3.4 | suppresses XBP1 splicing | block RIDD
Cc1c(F)c(NS(=O)(=O)CC(F)(F)F)c2ccccc2c1Oc1ncccc1-c1ccnc(N[C@@H]2CNC[C@@H](F)C2)n1 [LBC-0000399, 2,2,2-trifluoro-N-(2-fluoro-4-((3-(2-(((3S,5S)-5-fluoropiperidin-3-yl)amino)pyrimidin-4-yl)pyridin-2-yl)oxy)-3-methylnaphthalen-1-yl) ethane-1-sulfonamide] | – | 5.1 | – | –
Cc1cc(NS(=O)(=O)C2CCC2)c2ccccc2c1Oc1ncccc1-c1ccnc(N[C@@H]2CNC[C@@H](F)C2)n1 [LBC-411, N-(4-((3-(2-(((3S,5S)-5-fluoropiperidin-3-yl)amino)pyrimidin-4-yl)pyridin-2-yl)oxy)-3-methylnaphthalen-1-yl)cyclobutanesulfonamide] | – | 4.4 | do not suppress XBP mRNA splicing | block RIDD
Cc1cc(NS(=O)(=O)CC(F)(F)F)c2ccccc2c1Oc1ncccc1-c1ccnc(N[C@H]2CCCNC2)n1 [LBC-0000389, (S)-2,2,2-trifluoro-N-(3-methyl-4-((3-(2-(piperidin-3-ylamino)pyrimidin-4-yl)pyridin-2-yl)oxy)naphthalen-1-yl) ethane sulfonamide] | – | 8 | – | –
Cc1cc(NS(=O)(=O)C2(C)CC2)c2ccccc2c1Oc1ncccc1-c1ccnc(N[C@@H]2CNC[C@@H](F)C2)n1 [LBC-413, N-(4-((3-(2-(((3S,5S)-5-fluoropiperidin-3-yl)amino)pyrimidin-4-yl)pyridin-2-yl)oxy)-3-methylnaphthalen-1-yl)-1-methylcyclopropane-1-sulfonamide] | – | 32 | do not suppress XBP mRNA splicing | block RIDD
Cc1c(F)c(NS(C)(=O)=O)c2ccccc2c1Oc1ncccc1-c1ccnc(N[C@H]2CCCNC2)n1 [LBC-0000401, (S)—N-(2-fluoro-3-methyl-4-((3-(2-(piperidin-3-ylamino)pyrimidin-4-yl)pyridin-2-yl)oxy)naphthalen-1-yl) methane sulfonamide] | – | 16 | – | –

— US11884649B2, “IRE1α inhibitors and uses thereof” (The Regents of the University of California, priority 2020, dated 2024)
